Structures are written as SMILES. Some results are limits rather than exact numbers.

One assay deals with T1, GPR119 (Homo sapiens, UniProt Q8TDV5).
T1 sequence (Q8TDV5 1-335): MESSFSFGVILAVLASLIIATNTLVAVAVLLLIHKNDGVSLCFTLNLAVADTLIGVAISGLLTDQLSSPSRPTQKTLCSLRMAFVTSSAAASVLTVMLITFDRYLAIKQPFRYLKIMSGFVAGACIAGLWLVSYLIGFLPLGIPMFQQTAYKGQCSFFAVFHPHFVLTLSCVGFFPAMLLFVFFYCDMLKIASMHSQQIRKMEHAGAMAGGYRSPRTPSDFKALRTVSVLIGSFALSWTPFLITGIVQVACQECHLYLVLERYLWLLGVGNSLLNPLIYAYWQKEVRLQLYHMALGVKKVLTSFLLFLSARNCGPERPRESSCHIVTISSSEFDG
The experiment in a line: cAMP assays of selected examples (stimulation of cAMP). Type of assay: cell-based. Particulars: '>200 nM'. An excerpt:
Camp Assays of Selected Examples
(Changes in cAMP serve as a functional read-out for many G protein-coupled receptors.)
For orientation: EC50 means the midpoint of the concentration-response curve. Low readings indicate greater potency, high ones weaker potency. `CS(=O)(=O)c1ccc(OCc2cn(C3CCC(Oc4ncccn4)CC3)nn2)cc1` (centres unmarked): the EC50 was greater than 200 nM.

`Cc1cnc(OC2CCC(n3cc(COc4ccc(S(C)(=O)=O)cc4)nn3)CC2)nc1` (centres unmarked) yielded an EC50 greater than 200 nM.

For the compound `CCc1cnc(OC2CCC(c3nc(CNc4ccc(S(C)(=O)=O)cc4)cs3)CC2)nc1` (centres unmarked), the EC50 is greater than 200 nM.

As to `CCc1cnc(OC2CCC(n3cc(COc4ccc(S(C)(=O)=O)cc4)nn3)CC2)nc1` (centres unmarked), the EC50 is greater than 200 nM.

Staying with this assay, now noted: <200 nM.
In the case of `CCc1cnc(OC2CCC(Oc3c(F)cc(-c4ccc(S(C)(=O)=O)cc4)cc3F)CC2)nc1` (centres unmarked), the EC50 is less than 200 nM.

In the case of `CCc1cnc(OC2CCC(c3nc(COc4ccc(S(C)(=O)=O)cc4F)cs3)CC2)nc1` (centres unmarked), the EC50 was less than 200 nM.

`CCc1cnc(OC2CCC(c3nc(COc4ccc(S(C)(=O)=O)cc4)cs3)CC2)nc1` (centres unmarked) displayed an EC50 of less than 200 nM.

On to `CCc1cnc(OC2CCC(c3nc(COc4ccc(-n5cnnn5)cc4)cs3)CC2)nc1` (centres unmarked), for which the 50% effective concentration (EC50) is less than 200 nM.

(Values after US20120053180A1, “CYCLOHEXANE ANALOGUES AS GPR119 AGONISTS” (CHEMIZON, A DIVISION OF OPTOMAGIC CO., LTD., priority 2010, published 2012).)
